In ChEMBL document CHEMBL1697731, “Cheminformatics analysis of assertions mined from literature that describe drug-induced liver injury in different species” (Chem Res Toxicol, 2010):

Assays:
Hepatotoxicity [1] = assay: Literature-mined compound from Fourches et al multi-species drug-induced liver injury (DILI) dataset, effect in non-rodents
Hepatotoxicity [2] = assay: Literature-mined compound from Fourches et al multi-species drug-induced liver injury (DILI) dataset, effect in rodents; conditions: rodentia
Hepatotoxicity [3] = assay: Literature-mined compound from Fourches et al multi-species drug-induced liver injury (DILI) dataset, effect in humans; conditions: human

| Molecule | Hepatotoxicity (Hepatotoxicity [1]) | Hepatotoxicity (Hepatotoxicity [2]) | Hepatotoxicity (Hepatotoxicity [3]) | Hepatotoxicity (Hepatotoxicity [1]; Liver) | Hepatotoxicity (Hepatotoxicity [2]; Liver) | Hepatotoxicity (Hepatotoxicity [3]; Liver) |
| --- | --- | --- | --- | --- | --- | --- |
| C[N+](C)(C)CCOC(N)=O.[Cl-] [CARBACHOL] | no drug-induced liver injury reported | drug-induced liver injury reported | no drug-induced liver injury reported | – | – | – |
| NC1=NC(=O)C(c2ccccc2)O1 (stereo unspecified) [PEMOLINE] | no drug-induced liver injury reported | no drug-induced liver injury reported | drug-induced liver injury reported | – | – | – |
| Cc1oncc1C(=O)Nc1ccc(C(F)(F)F)cc1 [LEFLUNOMIDE] | no drug-induced liver injury reported | drug-induced liver injury reported | drug-induced liver injury reported | – | – | – |
| CC[C@]12C=CCN3CC[C@@]4(c5cc([C@@]6(C(=O)OC)C[C@@H]7C[C@@H](C(C)(F)F)CN(Cc8c6[nH]c6ccccc86)C7)c(OC)cc5N(C)[C@H]4[C@@](O)(C(=O)OC)[C@@H]1OC(C)=O)[C@@H]32 [VINFLUNINE] | no drug-induced liver injury reported | drug-induced liver injury reported | no drug-induced liver injury reported | – | – | – |
| CC(C)/N=c1\cc2n(-c3ccc(Cl)cc3)c3ccccc3nc-2cc1Nc1ccc(Cl)cc1 [CLOFAZIMINE] | no drug-induced liver injury reported | no drug-induced liver injury reported | drug-induced liver injury reported | – | – | – |
| Nc1nc2c(ncn2CCC(CO)CO)c(=O)[nH]1 [PENCICLOVIR] | no drug-induced liver injury reported | no drug-induced liver injury reported | drug-induced liver injury reported | – | – | – |
| O=C([O-])P(=O)([O-])[O-].[Na+].[Na+].[Na+] [FOSCARNET SODIUM] | no drug-induced liver injury reported | drug-induced liver injury reported | no drug-induced liver injury reported | – | – | – |
| N[C@@H](Cc1ccc(N(CCCl)CCCl)cc1)C(=O)O | no drug-induced liver injury reported | drug-induced liver injury reported | drug-induced liver injury reported | – | – | – |
| O[C@H]1[C@H](O)[C@@H](O)[C@H](O)[C@@H](O)[C@H]1O [INOSITOL] | no drug-induced liver injury reported | no drug-induced liver injury reported | drug-induced liver injury reported | – | – | – |
| O=C(O)c1cc(-c2ccccc2)nc2ccccc12 [CINCHOPHEN] | drug-induced liver injury reported | no drug-induced liver injury reported | drug-induced liver injury reported | – | – | – |
| Cc1c(N(C)CS(=O)(=O)[O-])c(=O)n(-c2ccccc2)n1C.[Na+] [DIPYRONE SODIUM] | no drug-induced liver injury reported | drug-induced liver injury reported | drug-induced liver injury reported | – | – | – |
| TYLOXAPOL | no drug-induced liver injury reported | drug-induced liver injury reported | no drug-induced liver injury reported | – | – | – |
| CC(Cc1ccc(O)c(O)c1)C(C)Cc1ccc(O)c(O)c1 (stereo unspecified) [NORDIHYDROGUAIARETIC ACID] | no drug-induced liver injury reported | drug-induced liver injury reported | drug-induced liver injury reported | – | – | – |
| NC12CC3CC(CC(C3)C1)C2 [AMANTADINE] | no drug-induced liver injury reported | drug-induced liver injury reported | no drug-induced liver injury reported | – | – | – |
| O=C(O)c1ccccc1Nc1cccc(C(F)(F)F)c1 [FLUFENAMIC ACID] | no drug-induced liver injury reported | drug-induced liver injury reported | drug-induced liver injury reported | – | – | – |
| C[C@]12C=CC(=O)C=C1CC[C@H]1[C@@H]3C[C@@H](O)[C@](O)(C(=O)CO)[C@@]3(C)C[C@H](O)[C@@]12F [TRIAMCINOLONE] | no drug-induced liver injury reported | drug-induced liver injury reported | no drug-induced liver injury reported | – | – | – |
| CCC[C@@H]1C[C@@H](C(=O)N[C@@H]([C@H]2O[C@H](SC)[C@H](O)[C@@H](O)[C@H]2O)[C@H](C)Cl)N(C)C1 [CLINDAMYCIN] | no drug-induced liver injury reported | no drug-induced liver injury reported | drug-induced liver injury reported | – | – | – |
| Cc1cc(-c2ccc(/N=N/c3c(S(=O)(=O)[O-])cc4cc(S(=O)(=O)[O-])cc(N)c4c3O)c(C)c2)ccc1/N=N/c1c(S(=O)(=O)[O-])cc2cc(S(=O)(=O)[O-])cc(N)c2c1O.[Na+].[Na+].[Na+].[Na+] [TRYPAN BLUE] | no drug-induced liver injury reported | drug-induced liver injury reported | no drug-induced liver injury reported | – | – | – |
| Cn1c(=O)c2[nH]cnc2n(C)c1=O.Cn1c(=O)c2[nH]cnc2n(C)c1=O.NCCN [AMINOPHYLLINE] | no drug-induced liver injury reported | drug-induced liver injury reported | drug-induced liver injury reported | – | – | – |

| Molecule | Hepatotoxicity (Hepatotoxicity [1]) | Hepatotoxicity (Hepatotoxicity [2]) | Hepatotoxicity (Hepatotoxicity [3]) | Hepatotoxicity (Hepatotoxicity [1]; Liver) | Hepatotoxicity (Hepatotoxicity [2]; Liver) | Hepatotoxicity (Hepatotoxicity [3]; Liver) |
| --- | --- | --- | --- | --- | --- | --- |
| CC/C=C\C/C=C\C/C=C\C/C=C\C/C=C\CCCC(=O)O [ICOSAPENT] | no drug-induced liver injury reported | drug-induced liver injury reported | drug-induced liver injury reported | – | – | – |
| CNC(=O)[C@@H](NC(=O)[C@H](CC(C)C)[C@H](O)C(=O)NO)C(C)(C)C | no drug-induced liver injury reported | drug-induced liver injury reported | no drug-induced liver injury reported | – | – | – |
| CC(C)(O)c1ccccc1CC[C@@H](SCC1(CC(=O)O)CC1)c1cccc(/C=C/c2ccc3ccc(Cl)cc3n2)c1 [MONTELUKAST] | no drug-induced liver injury reported | no drug-induced liver injury reported | drug-induced liver injury reported | – | – | – |
| CC(C)NCC(O)COc1cccc2ccccc12 (stereo unspecified) [PROPRANOLOL] | drug-induced liver injury reported | drug-induced liver injury reported | drug-induced liver injury reported | – | – | – |
| NC(N)=Nc1nc(CSCCC(N)=NS(N)(=O)=O)cs1 [FAMOTIDINE] | – | – | – | no drug-induced liver injury reported | drug-induced liver injury reported | drug-induced liver injury reported |
| CSc1ccc(C(=O)c2[nH]c(=O)[nH]c2C)cc1 [ENOXIMONE] | no drug-induced liver injury reported | drug-induced liver injury reported | no drug-induced liver injury reported | – | – | – |
| CCC[C@H](NC(=O)[C@@H]1[C@H]2CCC[C@H]2CN1C(=O)[C@@H](NC(=O)[C@@H](NC(=O)c1cnccn1)C1CCCCC1)C(C)(C)C)C(=O)C(=O)NC1CC1 | no drug-induced liver injury reported | no drug-induced liver injury reported | drug-induced liver injury reported | – | – | – |
| Oc1c2ccccc2c2c3c(cccc13)N=N2 [SP-600125] | no drug-induced liver injury reported | drug-induced liver injury reported | drug-induced liver injury reported | – | – | – |
| CC(C)=CCN1CC[C@]2(C)c3cc(O)ccc3C[C@H]1[C@H]2C [(+)-PENTAZOCINE] | no drug-induced liver injury reported | drug-induced liver injury reported | no drug-induced liver injury reported | – | – | – |
| Nc1ncn([C@@H]2O[C@H](CO)[C@@H](O)[C@H]2O)c(=O)n1 [AZACITIDINE] | – | – | – | no drug-induced liver injury reported | drug-induced liver injury reported | drug-induced liver injury reported |
| CC/C(=C(\c1ccc(I)cc1)c1ccc(OCCN2CCCC2)cc1)c1ccccc1 [IDOXIFENE] | no drug-induced liver injury reported | drug-induced liver injury reported | no drug-induced liver injury reported | – | – | – |
| C[C@]12CCC(=O)C=C1CC[C@@H]1[C@@H]2CC[C@@]2(C)[C@H]1CC[C@]2(C)O (stereo in doubt; form 1) [METHYLTESTOSTERONE] | no drug-induced liver injury reported | drug-induced liver injury reported | no drug-induced liver injury reported | – | – | – |
| CN1CC[C@]23c4c5ccc(O)c4O[C@H]2[C@@H](O)C=C[C@H]3[C@H]1C5 [MORPHINE] | – | – | – | no drug-induced liver injury reported | drug-induced liver injury reported | drug-induced liver injury reported |
| Nc1n[n+]([O-])c2ccccc2[n+]1[O-] [TIRAPAZAMINE] | no drug-induced liver injury reported | drug-induced liver injury reported | no drug-induced liver injury reported | – | – | – |
| CC(=O)CC(c1ccccc1)c1c(O)c2ccccc2oc1=O (stereo unspecified) [WARFARIN] | no drug-induced liver injury reported | drug-induced liver injury reported | drug-induced liver injury reported | – | – | – |
| CCC1(C2=CCCCC2)C(=O)NC(=O)NC1=O [CYCLOBARBITAL] | no drug-induced liver injury reported | drug-induced liver injury reported | no drug-induced liver injury reported | – | – | – |
| O=c1n(CCCN2CCN(c3cccc(Cl)c3)CC2)nc2ccccn12 [TRAZODONE] | no drug-induced liver injury reported | no drug-induced liver injury reported | drug-induced liver injury reported | – | – | – |
| CC(=O)Nc1ccc(OC(=O)c2ccccc2OC(C)=O)cc1 [BENORILATE] | no drug-induced liver injury reported | drug-induced liver injury reported | no drug-induced liver injury reported | – | – | – |
